Measured values published in patent publication US8492589B2, “Alkynyl phenyl derivative compounds for treating ophthalmic diseases and disorders” (Acucela Inc., priority 2007, dated 2013).
Like-named read-outs stand apart in the source and are kept apart here.

Biological target: T1, isomerase (Mus musculus, UniProt Q91ZQ5)
T1 construct: The recovery of 11-cis-retinal after bleaching can be used to estimate the activity of isomerase in vivo; from tissue; host or cells: eyes of living CD-1 and Balb/c male mice
T1 sequence (Q91ZQ5 1-533): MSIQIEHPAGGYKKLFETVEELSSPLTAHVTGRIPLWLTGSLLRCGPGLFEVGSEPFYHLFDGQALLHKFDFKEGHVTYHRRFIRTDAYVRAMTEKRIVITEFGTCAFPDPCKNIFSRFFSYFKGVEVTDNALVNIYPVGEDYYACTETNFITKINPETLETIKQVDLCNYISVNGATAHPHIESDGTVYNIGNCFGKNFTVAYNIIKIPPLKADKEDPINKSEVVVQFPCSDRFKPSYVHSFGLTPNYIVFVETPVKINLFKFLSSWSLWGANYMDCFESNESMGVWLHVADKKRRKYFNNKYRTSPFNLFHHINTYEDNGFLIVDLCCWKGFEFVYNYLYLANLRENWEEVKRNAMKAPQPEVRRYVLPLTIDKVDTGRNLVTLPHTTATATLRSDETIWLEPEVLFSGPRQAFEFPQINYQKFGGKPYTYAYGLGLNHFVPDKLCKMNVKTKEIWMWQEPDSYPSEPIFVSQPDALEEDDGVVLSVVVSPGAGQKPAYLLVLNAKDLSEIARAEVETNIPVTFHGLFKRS
Assay: In vivo murine isomerase assay (recovery of 11-cis-retinal after photobleaching)
Parameters: species or system mice
Settings: for inhibition in vivo at 1 mg/kg / inhibition in vivo at 5 mg/kg / ED50: mouse; for inhibition in vivo at 1 mg/kg / inhibition in vivo at 5 mg/kg: read-out: % Inibition; for ED50: po, read-out: ED50 (dose of compound that gives 50% inhibition of 11-cis retinal (oxime) recovery), estimated, male Balb/c mice, HCl salts dosed orally in mg/kg; for ED50 / inhibition of isomerase activity in vivo (figure legend): photobleached 4 hours after dosing; for inhibition of isomerase activity in vivo (figure legend): oral dose response, Balb/c mice
Experimental: The capability of alkynyl phenyl-linked amine derivatives to inhibit isomerase is determined by an in vivo murine isomerase assay. Brief exposure of the eye to intense light (“photobleaching” of the visual pigment or simply “bleaching”) is known to photo-isomerize almost all 11-cis-retinal in the retina. The recovery of 11-cis-retinal after bleaching can be used to estimate the activity of isomerase in vivo. Delayed recovery, as represented by lower 11-cis-retinal oxime levels, indicates inhibition of isomerization reaction. Procedures were performed essentially as described by Golczak et al., Proc. Natl. Acad. Sci. […] See also Deigner et al., Science, 244: 968-71 (1989); […] Parish, et al., Proc. Natl. Acad. Sci. USA, 14609-13 (1998); […] Six-week old dark-adapted CD-1 (albino) male mice were orally gavaged with compound (0.03-3 mg/kg) dissolved in 100 μl corn oil containing 10% ethanol (five animals per group). […] After 2-24 hours in the dark, the mice were exposed to photobleaching of 5,000 lux of white light for 10 minutes. The mice were allowed to recover 2 hours in the dark. The animals were then sacrificed by carbon dioxide inhalation. Retinoids were extracted from the eye and the regeneration of 11-cis-retinal was assessed at various time intervals. All steps were performed in darkness with minimal redlight illumination (low light darkroom lights and […] flashlights for spot illumination as needed) (see, e.g., Maeda et al., J. Neurochem 85:944-956, 2003; Van Hooser et al., J Biol Chem 277:19173-82, 2002). After the mice were sacrificed, the eyes were immediately removed and placed in liquid nitrogen for storage. The eyes were placed in 500 μL of bis-tris propane buffer (10 mM, pH 7.3) and 20 μL of 0.8M hydroxile amine (pH-7.3). The eyes were cut up into small pieces with small iris scissors and then thoroughly homogenized at 30000 rpm with a mechanical homogenizer (Polytron PT 1300 D) in the tube until no visible tissue remained. 500 μL of methanol and 500 μL of heptane were added to each tube. The tubes were attached to a vortexer so that the contents were mixed thoroughly for 15 minutes in room temperature. […] The samples were analyzed on an Agilent 1100 HPLC system with normal phase column: SILICA (Beckman Coutlier, dp 5 μm, […]). The running method has a flow rate of 1.5 ml/min; solvent components are 15% solvent 1 (1% isopropanol in ethyl acetate), and 85% solvent 2 (100% hexanes). Loading volume for each sample is 100 μl; detection wavelength is 360 nm. The area under the curve for 11-cis retinal oxime was calculated by Agilent Chemstation software and was recorded manually. Data processing was performed using Prizm software. Positive control mice (no compound administered) were sacrificed fully dark-adapted and the eye retinoids analyzed. Light (bleached) control mice (no compound administered) were sacrificed and retinoids isolated and analyzed immediately after light treatment. […] Animals that received Compound 19 HCl were orally dosed with 0.01 and 1 mg/kg of compound in sterile water as solution, and photobleached 4 hours after dosing. Recovery and retinoid analysis were performed as described above. Dark control mice were vehicle-only treated, sacrificed fully dark adapted without light treatment, and analyzed. […] A time course study was performed to determine the isomerase inhibitory activity of Compounds 2, 18 and 19. Male Balb/c mice (4/group) received 3 mg Compound 2-HCl, Compound 18-HCl or Compound 19-HCl (in water) per kg bodyweight orally, by gavage. The animals were then “photo-bleached” (5000 Lux white light for 10 minutes) at 2, 4, 8, 16 and 24 hours after dosing, and returned to darkness to allow recovery of the 11-cis-retinal content of the eyes. Mice were sacrificed 2 hours after bleaching, eyes were enucleated, and retinoid content was analyzed by HPLC. A single dose study of the compound of Example 36 (Compound 36) was performed, at 1 mg/kg and 5 mg/kg oral dosing, 2, 4, 6, and 24 hours post bleaching. […]

SMILES | inhibition in vivo at 1 mg/kg (4 h) [%] | inhibition in vivo at 1 mg/kg (24 h) [%] | inhibition in vivo at 5 mg/kg (4 h) [%] | inhibition in vivo at 5 mg/kg (24 h) [%] | ED50 [mg/kg] | inhibition of isomerase activity in vivo (figure legend)
NCCOc1cccc(C#CC2(O)CCCCCC2)c1 [Example 78, 1-((3-(2-aminoethoxy)phenyl)ethynyl)-cycloheptanol] | 0 | 0 | – | – | – | –
CCCC(O)C#Cc1cccc(CCCN)c1 (stereo not drawn) [Example 8, 1-(3-(3-Aminopropyl)phenyl)hex-1-yn-3-ol] | – | – | 0 | 0 | – | –
NCCCc1cccc(C#CC2(O)CCCCC2)c1 [Example 11, 1-((3-(3-Aminopropyl)phenyl)ethynyl)cyclohexanol] | 0 | 0 | 17 | 0 | – | –
NCCC(O)c1cccc(C#CCCc2ccccc2)c1 (stereo not drawn) [Example 69, 3-Amino-1-(3-(4-phenylbut-1-ynyl)phenyl)propan-1-ol] | 81 | 10 | – | – | – | –
NCCCc1cccc(C#C[C@@H](O)c2ccccc2)c1 [Example 26, (S)-3-(3-(3-Aminopropyl)phenyl)-1-phenylprop-2-yn-1-ol] | 18 | 0 | – | – | – | –
NCCOc1cccc(C#CC2(O)CCSCC2)c1 [Example 55, 4-((3-(2-Aminoethoxy)Phenyl)Ethynyl)Tetrahydro-2H-Thiopyran-4-ol] | 16 | 7 | – | – | – | –
CC(C)(C)C(C)(O)C#Cc1cccc(CCCN)c1 (stereo not drawn) [Example 25, 1-(3-(3-Aminopropyl)phenyl)-3,4,4-trimethylpent-1-yn-3-ol] | 1 | 0 | – | – | – | –
CCCC(O)(C#Cc1cccc(OCCN)c1)CCC [Example 18, 4-((3-(2-Aminoethoxy)phenyl)ethynyl)heptan-4-ol] | – | – | – | – | 1.73 | concentration-dependent inhibition
NCCOc1cccc(C#CC2CCCCC2)c1 [Example 80, 2-(3-(Cyclohexylethynyl)phenoxy)ethanamine] | 22 | 0 | – | – | – | –
NCCCc1cccc(C#CC2CCCC2)c1 [Example 38, 3-(3-(Cyclopentylethynyl)phenyl)propan-1-amine] | 0 | 0 | 8 | 1 | – | –
NCCCc1cccc(C#Cc2ccncc2)c1 [Example 63, 3-(3-(Pyridin-4-ylethynyl)phenyl)propan-1-amine] | 11 | 0 | – | – | – | –
CCC(O)(C#Cc1cccc(CCCN)c1)CC [Example 1, 1-(3-(3-Aminopropyl)phenyl)-3-ethylpent-1-yn-3-ol] | 3 | 0 | – | – | – | –
NCCCc1cccc(C#CC2(O)CCCC2)c1 [Example 24, 1-((3-(3-Aminopropyl)phenyl)ethynyl)cyclopentanol] | 0 | 0 | 27 | 0 | – | –
CCC(O)(C#Cc1cccc(OCCN)c1)CC [Example 27, 1-(3-(2-Aminoethoxy)phenyl)-3-ethylpent-1-yn-3-ol] | 7 | 6 | 65 | 0 | – | –
CCCC(O)(C#Cc1cccc([C@H](O)CCN)c1)CCC [Compound 100, (R)-4-((3-(3-Amino-1-Hydroxypropyl)Phenyl)Ethynyl)Heptan-4-ol] | – | – | – | – | 0.2 | concentration-dependent inhibition
NCCCc1cccc(C#Cc2ccccc2)c1 [Example 37, 3-(3-(Phenylethynyl)phenyl)propan-1-amine] | 23 | 9 | 73 | 0 | – | –
NCCOc1cccc(C#Cc2ccccc2)c1 [Example 81, 2-(3-(Phenylethynyl)phenoxy)-ethanamine] | 8 | 3 | – | – | – | –
CCCC(C#Cc1cccc(CCCN)c1)(CCC)OC [Example 4, 3-(3-(3-Methoxy-3-propylhex-1-ynyl)phenyl)propan-1-amine] | 21 | 0 | 95 | 0 | – | –
NCCC(O)c1cccc(C#CCCCCO)c1 (stereo not drawn) [Example 50, 6-(3-(3-Amino-1-hydroxypropyl)phenyl)hex-5-yn-1-ol] | 13 | 31 | – | – | – | –
CCCC(O)(C#Cc1cccc(CCCN)c1)CCC [Example 2, 4-((3-(3-Aminopropyl)phenyl)ethynyl)heptan-4-ol] | – | – | – | – | 0.69 | concentration-dependent inhibition
NCCOc1cccc(C#CC2(O)CCCCC2)c1 [Example 57, 1-((3-(2-Aminoethoxy)phenyl)ethynyl)cyclohexanol] | 8 | 21 | – | – | – | –
CCCC(O)(C#Cc1cccc(C(O)CCN)c1)CCC (stereo not drawn) [Example 19, 4-((3-(3-Amino-1-hydroxypropyl)phenyl)ethynyl)heptan-4-ol] | – | – | – | – | 0.33 | concentration-dependent inhibition
CC(C)C(O)(C#Cc1cccc(OCCN)c1)C(C)C [Example 28, 1-(3-(2-Aminoethoxy)phenyl)-3-isopropyl-4-methylpent-1-yn-3-ol] | 27 | 0 | – | – | – | –
NCCOc1cccc(C#CCCCCO)c1 [Example 74, 6-(3-(2-Aminoethoxy)phenyl)hex-5-yn-1-ol] | 8 | 0 | – | – | – | –
NCCC(O)c1cccc(C#CC2CCCC2)c1 (stereo not drawn) [Example 47, 3-Amino-1-(3-(cyclopentylethynyl)phenyl)propan-1-ol] | 100 | 2 | – | – | – | –
NCCC(O)c1cccc(C#CC2(O)CCCCC2)c1 (stereo not drawn) [Example 99, 1-((3-(3-Amino-1-hydroxypropyl)phenyl)ethynyl)cyclohexanol] | 31 | 0 | – | – | – | –
NCCC(O)c1cccc(C#CC2(O)CCCCCC2)c1 (stereo not drawn) [Example 59, 1-((3-(3-Amino-1-hydroxypropyl)phenyl)ethynyl)cycloheptanol] | 31 | 0 | – | – | – | –
